From the NIST ThermoML archive (doi:10.1021/je400407z)

Settings: Liquid, Closed cell (Static) method

FC(F)CC(F)(F)F [1,1,1,3,3-pentafluoropropane]
Settings | vapor or sublimation pressure [kPa]
260.32 K | 28.52
272.13 K | 50.91
281.15 K | 75.62
293.31 K | 122.98
305.49 K | 192.78
313.62 K | 254.28
321.4 K | 324.38
333.49 K | 467.72
345.16 K | 642.26
351.47 K | 754.32
364 K | 1028.2
377.04 K | 1378.2

C=C(Cl)C(F)(F)F [2-chloro-3,3,3-trifluoro-1-propene]
Settings | vapor or sublimation pressure [kPa]
263.25 K | 43.43
264.27 K | 45.2
265.23 K | 47.13
266.27 K | 48.88
267.16 K | 51.02
267.22 K | 50.69
268.2 K | 52.65
269.08 K | 55.2
270.04 K | 57.24
270.94 K | 59.24
270.95 K | 59.34
271.9 K | 61.45
273.85 K | 66.42
274.8 K | 68.69
275.39 K | 70.68
277.03 K | 75.24
277.96 K | 77.86
278.77 K | 80.2
278.99 K | 81.33
279.8 K | 83.72
280.56 K | 85.87
281.62 K | 89.39
282.8 K | 93.36
283.65 K | 95.62
284.51 K | 98.59
285.1 K | 100.84
286.15 K | 103.78
287.18 K | 107.59
288.59 K | 113.2
289.24 K | 115.72
290.31 K | 120.08
292.2 K | 128.29
294.48 K | 138.49
296.12 K | 146.32
297.41 K | 152.85
298.46 K | 158.2
299.53 K | 164.03
300.22 K | 167.73
301.38 K | 174.15
303.03 K | 183.59
304.22 K | 191.32
305.36 K | 198.32
306.37 K | 205.25
307.38 K | 212.61
308.45 K | 219.76
309.44 K | 226.88
311.14 K | 239.23
312.65 K | 250.71
313.32 K | 255.58
314.65 K | 265.41
315.41 K | 271.67
316.41 K | 279.99
317.54 K | 288.86
318.54 K | 296.49
319.54 K | 305.35
320.2 K | 312.84
321.51 K | 323.9
322.28 K | 330.9
322.39 K | 331.79
323.27 K | 340.55
324.4 K | 351.13
325.16 K | 359.71
326.17 K | 370.1
327.54 K | 383.61
328.16 K | 390.36
329.38 K | 402.72
330.27 K | 412.59
331.36 K | 424.58
332.28 K | 434.81
333.1 K | 444.59
333.37 K | 447.55
334.34 K | 462.26
335.18 K | 468.47
336.2 K | 480.83
337.33 K | 494.73
338.3 K | 506.41
339.24 K | 518.13
340.43 K | 533.53
341.35 K | 545.17
342.25 K | 558.82
342.53 K | 561.23
344.38 K | 589.61
345.78 K | 613.34
346.77 K | 629.58
347.88 K | 646.33
348.77 K | 660.14
349.98 K | 679.92
350.86 K | 695.77
352.84 K | 728.61
354.89 K | 762.84
356.87 K | 799.73
358.89 K | 838.22
360.78 K | 874.39
362.63 K | 916.57
364.64 K | 957.2
366.88 K | 1003.7
368.89 K | 1047.8
370.88 K | 1093
372.9 K | 1138.9
